Results reported in patent US10519169B2, “3-(1H-pyrrolo[2,3-C]pyridin-2-yl)-1 H-pyrazolo[4,3-B]pyridines and therapeutic uses thereof” (Samumed, LLC, priority 2015, dated 2019).

What was measured:
Type in all cases: cell-based
SW480 colon cancer cells = assay: Cell viability assay (CellTiter-Blue), SW480 cells; conditions: Homo sapiens; for EC50: 96 h, four days, CellTiter-Blue; for inhibition at 10 µM: given for EC50 >10 μM, read-out: percent inhibition at 10 μM
Protocol: Representative compounds were screened using the following assay procedure to assess the effect on cell viability as described below.
Each compound was dissolved in DMSO as a 10 mM stock and used to prepare compound source plates. Serial dilution (1:3, 8-point dose-response curves from […]) and compound transfer was performed using the ECHO 550 (Labcyte, Sunnyvale, Calif.) into 96-well clear bottom, black-walled plates (Corning-Costar).
Approximately 2×10^3 SW480 colon cancer cells were seeded into each well and allowed to incubate in the presence or absence of compound for four days at 37° C./5% CO2. Eight replicates of DMSO-treated cells served as controls and cells treated with compound were performed in duplicate.
After incubation, 20 μL of CellTiter-Blue (Promega) was added to each well allowed to incubate for approximately 3 hours. This reagent was a buffered solution which contains resazurin, metabolically active cells were able to reduce rezarurin (blue) into resorufin (pink) which was highly fluorescent. This measured fluorescence was used as a readout for cell viability.
After incubation, the plates were read at Ex 560 nm Em 590 nm (Cytation 3, BioTek). Dose-response curves were generated and EC50 concentration values were calculated using non-linear regression curve fit in the GraphPad Prism (San Diego, Calif.) or Dotmatics' Studies Software (Bishops Stortford, UK). For EC50 of >10 μM, the percent inhibition at 10 μM is provided.

[1] = test system: Wnt activity (Sp5-Luc reporter, TCF/LEF binding sites) in SW480 colon carcinoma cells; assay: Wnt activity screening assay, Sp5-Luc reporter gene in SW480 cells; conditions: Homo sapiens; for EC50: overnight incubation; for inhibition at 10 µM: given for EC50 >10 μM, read-out: percent inhibition at 10 μM
From the text: The screening assay for Wnt activity is described as follows. Reporter cell lines can be generated by stably transducing cancer cell lines (e.g., colon cancer) or primary cells (e.g., IEC-6 intestinal cells) with a lentiviral construct that includes a Wnt-responsive promoter driving expression of the firefly luciferase gene.
SW480 colon carcinoma cells were transduced with a lentiviral vector expressing luciferase with a human Sp5 promoter consisting of a sequence of eight TCF/LEF binding sites. SW480 cells stably expressing the Sp5-Luc reporter gene and a hygromycin resistance gene were selected by treatment with 150 μg/mL of hygromycin for 7 days. These stably transduced SW480 cells were expanded in cell culture and used for all further screening activities. Each compound was dissolved in DMSO as a 10 mM stock and used to prepare compound source plates. Serial dilution (1:3, 10-point dose-response curves starting from 10 μM) and compound transfer was performed using the ECHO 550 (Labcyte, Sunnyvale, Calif.) into 384-well white solid bottom assay plates (Greiner Bio-One) with appropriate DMSO backfill for a final DMSO concentration of 0.1%. For Sp5-Luc reporter gene assays, the cells were plated at 4,000 cells/well in 384-well plates with medium containing 1% fetal bovine serum and incubated overnight at 37° C. and 5% CO2. Following incubation, 20 μl of BrightGlo luminescence reagent (Promega) was added to each well of the 384-well assay plates. The plates were placed on an orbital shaker for 2 min and then luminescence was quantified using the Envision (Perkin Elmer) plate reader. Readings were normalized to DMSO only treated cells, and normalized activities were utilized for EC50 calculations using the dose-response log (inhibitor) vs. response-variable slope (four parameters) nonlinear regression feature available in GraphPad Prism 5.0 (or Dotmatics). For EC50 of >10 μM, the percent inhibition at 10 μM is provided.

[2] = test system: primary human mesenchymal stem cells (hMSCs); assay: Chondrogenesis induction in hMSCs (chondrogenic nodules); conditions: 144 h, 6 days; for EC50: concentration required to induce 50% levels of chondrogenesis vs TGF-β3, read-out: Conc (nM) of 50% TGF-β3 activity; for Emax: nodules, relative to TGF-β3 positive control (10 ng/mL), read-out: Max. Activity as % TGF-β3 activity
Protocol: Representative compounds were screened using primary human mesenchymal stem cells (hMSCs) to determine their ability to induce chondrogenesis (process by which cartilage is developed).
Primary human mesenchymal stem cells (hMSCs) were purchased from Lonza (Walkersville, Md.) and expanded in Mesenchymal Stem Cell Growth Media (Lonza). Cells between passage 3 and 6 were used for the experiments.
Each compound was dissolved in DMSO as a 10 mM stock and used to prepare compound source plates. Serial dilution (1:3, 6-point dose-response curves from 2700 nM to 10 nM) and compound transfer was performed using the ECHO 550 (Labcyte, Sunnyvale, Calif.) into 96-well clear bottom assay plates (Greiner Bio-One) with appropriate DMSO backfill for a final DMSO concentration of 0.03%. hMSCs were plated at 20,000 cells/well in 250 μL/well Incomplete Chondrogenic Induction Medium (Lonza; DMEM, dexamethasone, ascorbate, insulin-transferrin-selenium [ITS supplement], gentamycin-amphotericin [GA-1000], sodium pyruvate, proline and L-glutamine). TGF-03 (10 ng/mL) was used as a positive control for differentiation while negative control wells were treated with 75 nL DMSO for normalization and calculating EC50 values. Cells were incubated at 37° C. and 5% CO2 for 6 days. To image chondrogenic nodules, the cells were fixed using 4% formaldehyde (Electron Microscopy Sciences), and stained with 2 μg/mL Rhodamine B (Sigma-Aldrich) and 20 μM Nile Red (Sigma-Aldrich) [Johnson K., et. al, A Stem Cell-Based Approach to Cartilage Repair, Science, (2012), 336(6082), 717-721]. The nodules imaged (4 images per well at 4× magnification) by excitation at 531 nm and emission at 625 nm and quantified using the CellInsight CX5 (Thermo Scientific). Number of nodules in each well was normalized to the average of 3 DMSO treated wells on the same plate using Excel (Microsoft Inc.). The normalized averages (fold change over DMSO) of 3 replicate wells for each compound concentration were calculated. Due to solubility limitations of some of the compounds, curve fitting was incomplete leading to inaccurate EC50 determinations.
Using TGF-β3 as a positive control, the concentration of representative compounds required to induce 50% levels of chondrogenesis is reported. In addition, the maximum activity of each compound and the respective dose that each compound reached maximum chondrogenesis activity is reported.

What does the source list for `Fc1cccc(-c2cncc3[nH]c(-c4n[nH]c5ccc(-c6cccnc6)nc45)cc23)c1` [Compound 4, 3-(4-(3-Fluorophenyl)-1H-pyrrolo[2,3-c]pyridin-2-yl)-5-(pyridin-3-yl)-1H-pyrazolo[4,3-b]pyridine]?
EC50 (SW480 colon cancer cells): 475 nM; EC50 [1]: 255 nM; EC50 [2]: 30 nM; Emax [2]: 92%

Which EC50 (SW480 colon cancer cells) does the source give for `CN(C)c1cncc(-c2ccc3[nH]nc(-c4cc5c(-c6cccc(F)c6)cncc5[nH]4)c3n2)c1` [Compound 7, 5-(3-(4-(3-Fluorophenyl)-1H-pyrrolo[2,3-c]pyridin-2-yl)-1H-pyrazolo[4,3-b]pyridin-5-yl)-N,N-dimethylpyridin-3-amine] here?
Its EC50 is 357 nM.

And the EC50 [1]?
Its EC50 is 516 nM.

And the EC50 [2]?
Its EC50 is 100 nM.

And the Emax [2]?
The Emax was 85%.

What does the source list for `Fc1cccc(-c2cncc3[nH]c(-c4n[nH]c5ccc(-c6cncc(CN7CCCCC7)c6)nc45)cc23)c1` [Compound 15, 3-(4-(3-Fluorophenyl)-1H-pyrrolo[2,3-c]pyridin-2-yl)-5-(5-(piperidin-1-ylmethyl)pyridin-3-yl)-1H-pyrazolo[4,3-b]pyridine]?
EC50 (SW480 colon cancer cells): 4610 nM; EC50 [1]: 3710 nM; EC50 [2]: 10 nM; Emax [2]: 54%

What does the source list for `Cc1ccncc1-c1ccc2[nH]nc(-c3cc4c(-c5ccc(F)cc5)cncc4[nH]3)c2n1` [Compound 33, 3-(4-(4-Fluorophenyl)-1H-pyrrolo[2,3-c]pyridin-2-yl)-5-(4-methylpyridin-3-yl)-1H-pyrazolo[4,3-b]pyridine]?
EC50 (SW480 colon cancer cells): 1860 nM; inhibition at 10 µM [1]: 21.5%; EC50 [1]: > 10000 nM; Emax [2]: 28%

For `O=C(Nc1cncc(-c2ccc3[nH]nc(-c4cc5c(-c6ccc(F)cc6)cncc5[nH]4)c3n2)c1)c1ccccc1` [Compound 39, N-(5-(3-(4-(4-Fluorophenyl)-1H-pyrrolo[2,3-c]pyridin-2-yl)-1H-pyrazolo [4,3-b]pyridin-5-yl)pyridin-3-yl)benzamide], which EC50 (SW480 colon cancer cells) is on record?
Its EC50 is 2310 nM.

What about the EC50 [1] of the same molecule?
Its EC50 is 3430 nM.

With `Fc1ccc(-c2cncc3[nH]c(-c4n[nH]c5ccc(-c6cncc(CN7CCC(F)(F)C7)c6)nc45)cc23)cc1` [Compound 54, 5-(5-((3,3-Difluoropyrrolidin-1-yl)methyl)pyridin-3-yl)-3-(4-(4-fluorophenyl)-1H-pyrrolo[2,3-c]pyridin-2-yl)-1H-pyrazolo[4,3-b]pyridine] as the molecule, how does the EC50 (SW480 colon cancer cells) read?
The EC50 was 827 nM.

What about the EC50 [1] of the same molecule?
Its EC50 is 751 nM.

What about the EC50 [2] of the same molecule?
Its EC50 is 900 nM.

And the Emax [2]?
The Emax was 194%.

What does the source list for `CN(C)Cc1cncc(-c2ccc3[nH]nc(-c4cc5c(-c6ccccc6F)cncc5[nH]4)c3n2)c1` [Compound 69, 1-(5-(3-(4-(2-Fluorophenyl)-1H-pyrrolo[2,3-c]pyridin-2-yl)-1H-pyrazolo [4,3-b]pyridin-5-yl)pyridin-3-yl)-N,N-dimethylmethanamine]?
EC50 (SW480 colon cancer cells): 557 nM; EC50 [1]: 1510 nM; EC50 [2]: 30 nM; Emax [2]: 51%

Which EC50 (SW480 colon cancer cells) does the source give for `Cc1ccncc1-c1ccc2[nH]nc(-c3cc4c(-c5cccnc5)cncc4[nH]3)c2n1` [Compound 89, 5-(4-Methylpyridin-3-yl)-3-(4-(pyridin-3-yl)-1H-pyrrolo[2,3-c]pyridin-2-yl)-1H-pyrazolo[4,3-b]pyridine] here?
The EC50 was 8840 nM.

And the inhibition at 10 µM [1]?
The inhibition at 10 µM was 35.4%.

What about the EC50 [1] of the same molecule?
The EC50 was > 10000 nM.

What about the EC50 [2] of the same molecule?
Its EC50 is 10 nM.

What about the Emax [2] of the same molecule?
The Emax was 149%.

Which EC50 (SW480 colon cancer cells) does the source give for `FC1(F)CCN(Cc2cncc(-c3ccc4[nH]nc(-c5cc6c(-c7cccnc7)cncc6[nH]5)c4n3)c2)C1` [Compound 110, 5-(5-((3,3-Difluoropyrrolidin-1-yl)methyl)pyridin-3-yl)-3-(4-(pyridin-3-yl)-1H-pyrrolo[2,3-c]pyridin-2-yl)-1H-pyrazolo[4,3-b]pyridine] here?
The EC50 was 4860 nM.

What about the EC50 [1] of the same molecule?
The EC50 was 3850 nM.

What about the Emax [2] of the same molecule?
Its Emax is 23%.

Which results are given for `Nc1cncc(-c2ccc3[nH]nc(-c4cc5c(-c6ccncc6)cncc5[nH]4)c3n2)c1` [Compound 115, 5-(3-(4-(Pyridin-4-yl)-1H-pyrrolo[2,3-c]pyridin-2-yl)-1H-pyrazolo[4,3-b]pyridin-5-yl)pyridin-3-amine]?
EC50 (SW480 colon cancer cells): > 10000 nM; inhibition at 10 µM (SW480 colon cancer cells): 7.6%; inhibition at 10 µM [1]: 30.1%; EC50 [1]: > 10000 nM; EC50 [2]: 30 nM; Emax [2]: 53%

Which EC50 (SW480 colon cancer cells) does the source give for `c1cc(-c2cncc3[nH]c(-c4n[nH]c5ccc(-c6cncc(CN7CCCCC7)c6)nc45)cc23)ccn1` [Compound 127, 5-(5-(Piperidin-1-ylmethyl)pyridin-3-yl)-3-(4-(pyridin-4-yl)-1H-pyrrolo[2,3-c]pyridin-2-yl)-1H-pyrazolo[4,3-b]pyridine] here?
The EC50 was 5260 nM.

And the inhibition at 10 µM [1]?
Its inhibition at 10 µM is 29.6%.

What about the EC50 [1] of the same molecule?
Its EC50 is > 10000 nM.

What about the EC50 [2] of the same molecule?
The EC50 was 10 nM.

And the Emax [2]?
Its Emax is 97%.

Which EC50 (SW480 colon cancer cells) does the source give for `c1ccc(-c2ccc3[nH]nc(-c4cc5ccncc5[nH]4)c3n2)nc1` [Compound 280, 5-(Pyridin-2-yl)-3-(1H-pyrrolo[2,3-c]pyridin-2-yl)-1H-pyrazolo[4,3-b]pyridine] here?
Its EC50 is > 10000 nM.

What about the inhibition at 10 µM (SW480 colon cancer cells) of the same molecule?
The inhibition at 10 µM was 3.3%.

And the inhibition at 10 µM [1]?
Its inhibition at 10 µM is 2.1%.

And the EC50 [1]?
The EC50 was > 10000 nM.

For `O=C(Cc1ccccc1)Nc1cncc(-c2ccc3[nH]nc(-c4cc5c(-c6ccoc6)cncc5[nH]4)c3n2)c1` [Compound 318, N-(5-(3-(4-(Furan-3-yl)-1H-pyrrolo[2,3-c]pyridin-2-yl)-1H-pyrazolo[4,3-b]pyridin-5-yl)pyridin-3-yl)-2-phenylacetamide], which EC50 (SW480 colon cancer cells) is on record?
Its EC50 is > 10000 nM.

And the inhibition at 10 µM (SW480 colon cancer cells)?
Its inhibition at 10 µM is 23.8%.

What about the inhibition at 10 µM [1] of the same molecule?
Its inhibition at 10 µM is 0%.

What about the EC50 [1] of the same molecule?
Its EC50 is > 10000 nM.

For `Cc1ncc(-c2ccc3[nH]nc(-c4cc5c(-c6ccncc6)cncc5[nH]4)c3n2)n1C` [Compound 573, 5-(1,2-Dimethyl-1H-imidazol-5-yl)-3-(4-(pyridin-4-yl)-1H-pyrrolo[2,3-c]pyridin-2-yl)-1H-pyrazolo[4,3-b]pyridine], which EC50 (SW480 colon cancer cells) is on record?
The EC50 was > 10000 nM.

What about the inhibition at 10 µM (SW480 colon cancer cells) of the same molecule?
Its inhibition at 10 µM is 5.3%.

What about the inhibition at 10 µM [1] of the same molecule?
Its inhibition at 10 µM is 43.9%.

And the EC50 [1]?
Its EC50 is > 10000 nM.

Which EC50 (SW480 colon cancer cells) does the source give for `c1cc(-c2cncc3[nH]c(-c4n[nH]c5ccc(-c6cncc(OCCN7CCCC7)c6)nc45)cc23)co1` [Compound 690, 3-(4-(Furan-3-yl)-1H-pyrrolo[2,3-c]pyridin-2-yl)-5-(5-(2-(pyrrolidin-1-yl)ethoxy)pyridin-3-yl)-1H-pyrazolo[4,3-b]pyridine] here?
The EC50 was > 10000 nM.

What about the inhibition at 10 µM (SW480 colon cancer cells) of the same molecule?
Its inhibition at 10 µM is 0%.

And the inhibition at 10 µM [1]?
The inhibition at 10 µM was 7.4%.

And the EC50 [1]?
Its EC50 is > 10000 nM.
